Source: PubChem BioAssay (NCI)
“And” between values parts separate entries of the source, which are not always exact repeats. Equal entries are not always repeated.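 Grown in 96-well plates, cells were treated for 48 hours with each compound at five concentrations. Insufficient inhibition: endpoint recorded as highest concentration tested. GI50 is the concentration that inhibits growth by half. The concentration for full growth arrest is given as TGI.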 Where a SMILES comes first, the peptide text is derived from it. The star is where a group is joined. Boc = CC(C)(C)OC(=O)*

Legend:
Assay in all cases: NCI anticancer screen, dose series, 48 h
[1] = system: PC-3 prostate
[2] = system: SW-620 colon
[3] = system: A549 NSCLC
[4] = system: CAKI-1 renal
[5] = system: SF-295 CNS
[6] = system: SK-OV-3 ovarian
[7] = system: HCC-2998 colon
[8] = system: OVCAR-3 ovarian
[9] = system: RXF 393 renal
[10] = system: LXFL 529 NSCLC

SMILES	TGI [1]	TGI [2]	TGI [3]	TGI [4]	TGI [5]	TGI [6]	TGI [7]	TGI [8]	TGI [9]	GI50 [10]	TGI [10]	GI50 [1]	GI50 [3]	GI50 [4]	GI50 [6]	GI50 [7]	GI50 [8]
Cc1c(-c2nc3ccccc3[nH]2)c(=O)n(-c2ccccc2)n1C	> 100 µM	> 100 µM	> 100 µM	> 100 µM	> 100 µM	> 100 µM	> 100 µM	> 100 µM	> 100 µM	–	–	–	–	–	–	–	–
CC(C)c1ccc2[nH]c(O)c(-c3[nH]c4ccccc4c3N=O)c2c1	19.4 µM	25.2 µM	22.2 µM	22.9 µM	16.3 µM	19.6 µM	16.1 µM	20.7 µM	6.66 µM	–	–	–	–	–	–	–	–
O=C(CCCCCCCCC(=O)NN1C(=O)/C(=C\c2ccc(O)c(O)c2)SC1c1ccc(Cl)cc1)NN1C(=O)/C(=C\c2ccc(O)c(O)c2)SC1c1ccc(Cl)cc1 (stereo not drawn)	> 100 µM	> 100 µM	> 76.8 µM	> 88.1 µM	48.1 µM	> 90.9 µM	> 100 µM	> 100 µM	46.2 µM	–	–	–	–	–	–	–	–
CC(C)Sc1nc(C#N)cc2c1CCCC2	> 100 µM	> 100 µM	> 100 µM	> 100 µM	> 100 µM	> 100 µM	> 100 µM	> 100 µM	87.9 µM	–	–	–	–	–	–	–	–
COC(=O)C1(C(=O)OC)CC2=C(S(=O)(=O)c3ccccc3)C[C@H](S(=O)(=O)c3ccccc3)[C@H]2C1	> 100 µM	> 100 µM	> 100 µM	> 100 µM	> 100 µM	> 100 µM	29.5 µM	> 100 µM	66.2 µM	–	–	–	–	–	–	–	–
N.N.N.O=[N+]([O-])[O-].O=[N+]([O-])[O-].O=[N+]([O-])[O-].O=[N+]([O-])[O-].[Co+3]	–	> 100 µM	> 100 µM	–	> 100 µM	> 100 µM	–	> 100 µM	–	> 100 µM	> 100 µM	–	–	–	–	–	–
COc1cc(O)c(/C=N/N=C(\N)NO)c(OC)c1	> 10 µM	> 10 µM	> 10 µM	> 10 µM	> 10 µM	> 10 µM	> 10 µM	> 10 µM	> 10 µM	–	–	–	–	–	–	–	–
COCOC1/C=C/CCCCC2=C(C)C=C(C1)O2 (stereo not drawn)	> 100 µM	> 100 µM	> 100 µM	> 100 µM	> 100 µM	> 100 µM	> 100 µM	> 100 µM	> 100 µM	–	–	–	–	–	–	–	–
COC(=O)CNC(=O)C(Cc1ccccc1)NC(=O)C(CCSC)NC(=O)C(Cc1ccc(O)cc1)NC(=O)OC(C)(C)C (stereo not drawn) (Boc-YMFG-OMe; configuration not given here)	> 100 µM	> 100 µM	> 100 µM	> 100 µM	> 100 µM	> 100 µM	64.1 µM	38.9 µM	> 100 µM	–	–	–	–	–	–	–	–
COC(=O)C(/C(=N/NC(N)=O)C(=O)Nc1ccc(C)cc1)c1nc2ccc([N+](=O)[O-])cc2[nH]c1=O (stereo not drawn)	> 100 µM	> 100 µM	> 100 µM	> 100 µM	> 100 µM	> 100 µM	> 100 µM	> 100 µM	> 100 µM	–	–	–	–	–	–	–	–
CCOc1cc(NC(C)=O)ccc1C(=O)NNC(=O)c1ccccc1OC(C)=O	> 100 µM	> 100 µM	> 100 µM	> 50 µM	> 100 µM	> 100 µM	> 100 µM	> 100 µM	> 30.2 µM	–	–	–	–	–	–	–	–
Oc1ccc(/C=C/c2cc(O)cc(O)c2)cc1	> 100 µM	> 100 µM	> 100 µM	> 100 µM	> 100 µM	> 100 µM	> 100 µM	> 100 µM	> 100 µM	–	–	–	–	–	–	–	–
CCCCN1C(=O)CC2[C@@H]3CCc4cc(OC(C)=O)ccc4C3CC[C@]2(C)C1=O (stereo partly drawn)	> 10 µM	> 10 µM	> 10 µM	> 10 µM	> 10 µM	> 10 µM	> 10 µM	> 10 µM	> 10 µM	–	–	–	–	–	–	–	–
CC[C@]1(Cc2ccc(OC)c(OC)c2)CN(S(=O)(=O)c2ccc(C)cc2)C[C@@H]1OC(C)=O	> 100 µM	> 100 µM	> 100 µM	> 100 µM	> 100 µM	> 100 µM	> 100 µM	> 100 µM	> 100 µM	–	–	–	–	–	–	–	–
CCCCCCCCCCCCCCCCCCNc1ccn(C2OC(COP(=O)(O)OCC3OC(n4ccc(NC(=O)CCCCCCCCCCCCCCCCC)nc4=O)C(OC(C)=O)C3OC(C)=O)C(OC(C)=O)C2OC(C)=O)c(=O)n1 (stereo not drawn)	> 100 µM	> 100 µM	> 100 µM	> 100 µM	> 100 µM	> 100 µM	> 100 µM	> 100 µM	> 100 µM	–	–	–	–	–	–	–	–
S=C(N/N=C\C=N/NC(=S)N1CCCCC1)N1CCCCC1	> 100 µM	> 100 µM	> 100 µM	> 100 µM	> 77.8 µM	> 100 µM	> 100 µM	78.2 µM	6.06 µM	–	–	–	–	–	–	–	–
O=C(O)CSc1nnc(COc2ccc(Cl)cc2)n1-c1ccccc1	> 100 µM	> 100 µM	> 100 µM	> 100 µM	> 100 µM	> 100 µM	> 100 µM	> 100 µM	> 100 µM	–	–	–	–	–	–	–	–

SMILES	TGI [1]	TGI [2]	TGI [3]	TGI [4]	TGI [5]	TGI [6]	TGI [7]	TGI [8]	TGI [9]	GI50 [10]	TGI [10]	GI50 [1]	GI50 [3]	GI50 [4]	GI50 [6]	GI50 [7]	GI50 [8]
COc1cc(-c2cc(=O)c3cc4c(cc3[nH]2)OCO4)cc(OC)c1O	> 10 µM	> 10 µM	> 10 µM	> 10 µM	> 10 µM	> 10 µM	> 10 µM	> 10 µM	> 10 µM	–	–	–	–	–	–	–	–
CC(=O)OCC1OC(OC(C)(C)CC/C=C(\C)[C@@H]2C/C=C(\C)CC/C=C(\C)CC2)C(O)C(O)C1OC(C)=O (stereo partly drawn)	> 94.8 µM and 25.8 µM	> 31.6 µM and 50.7 µM	> 100 µM and 36 µM	> 100 µM and 35.3 µM	> 100 µM and 42.4 µM	> 100 µM and 34 µM	> 100 µM and 35.9 µM	> 100 µM and 28.6 µM	> 100 µM	–	–	35.8 µM and 13.1 µM	> 65.2 µM and 16.2 µM	58.6 µM and 18.7 µM	> 100 µM and 18.5 µM	69.8 µM and 17.9 µM	53.3 µM and 15.3 µM
C/C(CCOC1CCCCO1)=C(\C)[Si](C)(C)C (stereo not drawn)	–	> 100 µM	> 100 µM	–	> 100 µM	–	> 100 µM	> 100 µM	–	–	> 100 µM	–	–	–	–	–	–
COc1cccc2c(N)c3cccc(C(=O)NCCN(C)C)c3nc12	1.7 µM	2.71 µM	2.16 µM	2.21 µM	2.01 µM	1.97 µM	0.971 µM	1.7 µM	0.88 µM	–	–	–	–	–	–	–	–
Cc1nc2c(sc(=S)n2-c2ccccc2)c2nc3ncccc3n12	> 100 µM	> 100 µM	> 100 µM	> 100 µM	> 100 µM	> 100 µM	> 100 µM	> 100 µM	> 100 µM	–	–	–	–	–	–	–	–
COc1ccc(-n2c(=O)c3[nH]cnc3n(-c3ccc(OC)cc3)c2=S)cc1	> 100 µM	> 100 µM	> 100 µM	> 100 µM	> 100 µM	> 100 µM	> 100 µM	> 100 µM	> 100 µM	–	–	–	–	–	–	–	–
Brc1ccc(CCNCCN2CCCCC2)cc1	31.7 µM	31.1 µM	30 µM	29.2 µM	32.3 µM	42 µM	27.7 µM	29.7 µM	49.8 µM	–	–	–	–	–	–	–	–
COc1ccc(-c2cc(-c3ccco3)c(C#N)c(=S)n2C2OC(COC(C)=O)C(OC(C)=O)C(OC(C)=O)C2OC(C)=O)cc1 (stereo not drawn)	16.5 µM	93.2 µM	24.5 µM	13.9 µM	4.65 µM	26.8 µM	48.4 µM	19.7 µM	21.3 µM	–	–	–	–	–	–	–	–
CC(C)(N=NC(C)(C)C(=O)NCCO)C(=O)NCCO	> 100 µM	> 100 µM	> 100 µM	> 100 µM	> 100 µM	> 100 µM	> 100 µM	> 100 µM	> 100 µM	–	–	–	–	–	–	–	–
Cc1nc2cccc([N+](=O)[O-])c2c(NCCCN(C)C)c1C	> 50.8 µM	> 100 µM	> 100 µM	> 100 µM	> 100 µM	> 100 µM	> 54.3 µM	> 63.9 µM	> 100 µM	–	–	–	–	–	–	–	–
O=C(O)c1cc2c(cc1CC(Cc1ccc3c(c1)CCC3)C(=O)O)CCC2 (stereo not drawn)	> 100 µM	> 100 µM	> 100 µM	> 100 µM	> 100 µM	> 100 µM	> 100 µM	> 100 µM	> 100 µM	–	–	–	–	–	–	–	–
CN(CCC#N)c1ccc(/C=C2\SC(=S)NC2=O)cc1	> 100 µM	> 100 µM	> 100 µM	> 100 µM	> 100 µM	> 100 µM	> 100 µM	67.9 µM	96.9 µM	–	–	–	–	–	–	–	–
OC1C2[C@@H](O)CCCN2C[C@@H](O)[C@H]1O (stereo partly drawn)	> 100 µM	> 100 µM	> 100 µM	> 100 µM	> 100 µM	> 100 µM	> 100 µM	> 100 µM	> 100 µM	–	–	–	–	–	–	–	–
CC(CN1c2ccccc2Sc2ccccc21)N(C)C (stereo not drawn)	31.2 µM	45 µM	35.7 µM	34.1 µM	28.9 µM	32.6 µM	37.5 µM	31.1 µM	37.5 µM	–	–	–	–	–	–	–	–
CN(C)CCCOC(=O)C(c1ccccc1)C1(O)CCSCC1 (stereo not drawn)	> 100 µM	> 100 µM	> 100 µM	> 100 µM	> 100 µM	> 100 µM	> 100 µM	> 100 µM	> 100 µM	–	–	–	–	–	–	–	–
Nc1nc2cc3nc(N)c(N)nc3cc2nc1N	> 100 µM	> 100 µM	> 100 µM	> 100 µM	> 100 µM	> 100 µM	> 100 µM	> 100 µM	> 100 µM	–	–	–	–	–	–	–	–
